Measured values as given in patent US8192962B2, “Processes for detecting toxic substances” (Daikin Industries, Ltd., priority 2001, dated 2012).

Tested on: Unknown protein yeast genes
Assay: DNA chip mRNA expression in yeast, unknown protein yeast genes (Table 1)
Format: cell-based, Saccharomyces cerevisiae S288C
Outline: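 Expression change after 2 h toxicant exposure (growth-inhibiting, sub-lethal) of log-phase S. cerevisiae S288C at 25° C. Oligo-dT-purified mRNA was labeled with Cy3-dUTP or Cy5-dUTP and hybridized >12 h at 65° C. to a genome-wide chip; ratio of scanned fluorescence to control.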

## CCCCC[C@H](O)CC(=O)CCc1ccc(O)c(OC)c1 [(13), gingerol]
Yeast gene YAL018C
  The level of expressed mRNA in the presence of chemical substance/The level of expressed mRNA in the absence of chemical substance: 1.3
Yeast gene YAL049C, incubated two hours with substance
  The level of expressed mRNA in the presence of chemical substance/The level of expressed mRNA in the absence of chemical substance: 1.6
Yeast gene YAR031W
  The level of expressed mRNA in the presence of chemical substance/The level of expressed mRNA in the absence of chemical substance: 3.3
Yeast gene YAR047C
  The level of expressed mRNA in the presence of chemical substance/The level of expressed mRNA in the absence of chemical substance: 1.4
Yeast gene YAR064W
  The level of expressed mRNA in the presence of chemical substance/The level of expressed mRNA in the absence of chemical substance: 1.1
Yeast gene YBL048W
  The level of expressed mRNA in the presence of chemical substance/The level of expressed mRNA in the absence of chemical substance: 2.7
Yeast gene YBL049W
  The level of expressed mRNA in the presence of chemical substance/The level of expressed mRNA in the absence of chemical substance: 3.9
Yeast gene YBL107C
  The level of expressed mRNA in the presence of chemical substance/The level of expressed mRNA in the absence of chemical substance: 2.6
Yeast gene YBR012C
  The level of expressed mRNA in the presence of chemical substance/The level of expressed mRNA in the absence of chemical substance: 2.1
Yeast gene YBR062C
  The level of expressed mRNA in the presence of chemical substance/The level of expressed mRNA in the absence of chemical substance: 2.8
Yeast gene YBR124W
  The level of expressed mRNA in the presence of chemical substance/The level of expressed mRNA in the absence of chemical substance: 0.9
Yeast gene YBR287W
  The level of expressed mRNA in the presence of chemical substance/The level of expressed mRNA in the absence of chemical substance: 3.4
Yeast gene YCL056C
  The level of expressed mRNA in the presence of chemical substance/The level of expressed mRNA in the absence of chemical substance: 1.3
Yeast gene YCR007C
  The level of expressed mRNA in the presence of chemical substance/The level of expressed mRNA in the absence of chemical substance: 1.5
Yeast gene YCR013C
  The level of expressed mRNA in the presence of chemical substance/The level of expressed mRNA in the absence of chemical substance: 3.9
Yeast gene YDL027C
  The level of expressed mRNA in the presence of chemical substance/The level of expressed mRNA in the absence of chemical substance: 3.2
Yeast gene YDL046W
  The level of expressed mRNA in the presence of chemical substance/The level of expressed mRNA in the absence of chemical substance: 1.5
Yeast gene YDL110C
  The level of expressed mRNA in the presence of chemical substance/The level of expressed mRNA in the absence of chemical substance: 2.7
Yeast gene YDL169C
  The level of expressed mRNA in the presence of chemical substance/The level of expressed mRNA in the absence of chemical substance: 3.7
Yeast gene YDR090C
  The level of expressed mRNA in the presence of chemical substance/The level of expressed mRNA in the absence of chemical substance: 0.8
Yeast gene YDR128W
  The level of expressed mRNA in the presence of chemical substance/The level of expressed mRNA in the absence of chemical substance: 1.1
Yeast gene YDR133C
  The level of expressed mRNA in the presence of chemical substance/The level of expressed mRNA in the absence of chemical substance: 0.1
Yeast gene YDR210W
  The level of expressed mRNA in the presence of chemical substance/The level of expressed mRNA in the absence of chemical substance: 2.3
Yeast gene YDR250C
  The level of expressed mRNA in the presence of chemical substance/The level of expressed mRNA in the absence of chemical substance: 1.2
Yeast gene YDR366C
  The level of expressed mRNA in the presence of chemical substance/The level of expressed mRNA in the absence of chemical substance: 0.8
Yeast gene YDR435C
  The level of expressed mRNA in the presence of chemical substance/The level of expressed mRNA in the absence of chemical substance: 2.5
Yeast gene YDR476C
  The level of expressed mRNA in the presence of chemical substance/The level of expressed mRNA in the absence of chemical substance: 2.8
Yeast gene YER037W
  The level of expressed mRNA in the presence of chemical substance/The level of expressed mRNA in the absence of chemical substance: 3.0
Yeast gene YFL024C
  The level of expressed mRNA in the presence of chemical substance/The level of expressed mRNA in the absence of chemical substance: 0.9
Yeast gene YFR003C
  The level of expressed mRNA in the presence of chemical substance/The level of expressed mRNA in the absence of chemical substance: 2.5
Yeast gene YFR026C
  The level of expressed mRNA in the presence of chemical substance/The level of expressed mRNA in the absence of chemical substance: 1.1
Yeast gene YGR035C
  The level of expressed mRNA in the presence of chemical substance/The level of expressed mRNA in the absence of chemical substance: 2.1
Yeast gene YGR038W
  The level of expressed mRNA in the presence of chemical substance/The level of expressed mRNA in the absence of chemical substance: 1.2
Yeast gene YGR110W
  The level of expressed mRNA in the presence of chemical substance/The level of expressed mRNA in the absence of chemical substance: 3.6
Yeast gene YGR139W
  The level of expressed mRNA in the presence of chemical substance/The level of expressed mRNA in the absence of chemical substance: 0.4
Yeast gene YGR237C, incubated two hours with substance
  The level of expressed mRNA in the presence of chemical substance/The level of expressed mRNA in the absence of chemical substance: 1.6
Yeast gene YGR277C, incubated two hours with substance
  The level of expressed mRNA in the presence of chemical substance/The level of expressed mRNA in the absence of chemical substance: 1.6
Yeast gene YHL006C
  The level of expressed mRNA in the presence of chemical substance/The level of expressed mRNA in the absence of chemical substance: 1.1
Yeast gene YHR209W
  The level of expressed mRNA in the presence of chemical substance/The level of expressed mRNA in the absence of chemical substance: 2.0
Yeast gene YIL127C
  The level of expressed mRNA in the presence of chemical substance/The level of expressed mRNA in the absence of chemical substance: 0.4
Yeast gene YJL017W
  The level of expressed mRNA in the presence of chemical substance/The level of expressed mRNA in the absence of chemical substance: 1.5
Yeast gene YJL037W
  The level of expressed mRNA in the presence of chemical substance/The level of expressed mRNA in the absence of chemical substance: 1.1
Yeast gene YKL097C
  The level of expressed mRNA in the presence of chemical substance/The level of expressed mRNA in the absence of chemical substance: 0.9
Yeast gene YKL107W
  The level of expressed mRNA in the presence of chemical substance/The level of expressed mRNA in the absence of chemical substance: 1.9
Yeast gene YKR040C
  The level of expressed mRNA in the presence of chemical substance/The level of expressed mRNA in the absence of chemical substance: 0.6
Yeast gene YKR075C
  The level of expressed mRNA in the presence of chemical substance/The level of expressed mRNA in the absence of chemical substance: 3.8
Yeast gene YLR064W, incubated two hours with substance
  The level of expressed mRNA in the presence of chemical substance/The level of expressed mRNA in the absence of chemical substance: 1.6
Yeast gene YLR297W
  The level of expressed mRNA in the presence of chemical substance/The level of expressed mRNA in the absence of chemical substance: 0.8
Yeast gene YLR338W
  The level of expressed mRNA in the presence of chemical substance/The level of expressed mRNA in the absence of chemical substance: 1.2
Yeast gene YLR392C
  The level of expressed mRNA in the presence of chemical substance/The level of expressed mRNA in the absence of chemical substance: 1.4
